This passage reports melting point results from a melting point compilation (Tetko et al.; mined from patent text by program, amines drawn as free bases though some values may be those of a salt).

Where only a bound is given, the exact number is not on record here.

Molecule `CCCCSc1c[nH]nc1C1=CCCN(C)C1` yielded a melting point of 120 to 121 °C.
Turning to `C=COCCn1cccc1-c1nc(-c2ccc(OC)cc2)c(-c2ccc(OC)cc2)s1`, the melting point lay in the range of 81.5 to 84.5 °C.
The value for `Cc1oc(=O)oc1CSc1ccc(Cl)cc1` was 54 to 57 °C; that for `Cc1nc(N2CCN(Cc3ccccc3)C2=O)sc1C(=O)NCc1ccc(F)cc1F` was 157 to 158 °C; that for `CC(=O)NC[C@H]1CN(c2cc(F)c(N3CCC(n4ncn(C)c4=S)CC3)c(F)c2)C(=O)O1` was 168 to 170 °C.
The molecule `CC1(C)Cc2cc(Cl)ccc2C=[N+]1[O-]` gave a melting point of 64.5 to 66.5 °C.
`OC(CSc1ccc(Cl)cc1)Cn1ccnc1` (stereo not drawn) returned a melting point of 108 to 109 °C.
Next, `CC(C)(C)OC(=O)NC(CC(=O)NC1CC1)C1CC1` (stereo not drawn): 166 to 168 °C; `Cc1nc(-c2ccc(C(F)(F)F)cc2)sc1CSc1ccc(CC(=O)O)cc1`: 202 to 203 °C.
The value for `COc1cccc(-c2cc(O)c(SCc3ccccc3)c(=O)o2)c1` was 146 to 147 °C; that for `CC(=C1SCCCS1)c1ccc(Oc2ccc(S(C)=O)cc2)cc1` (stereo not drawn) was 132 °C.
Regarding `Cc1cc2c(cc1O)C(C)(C)CC(C)(c1cc(O)c(C)cc1O)O2` (stereo not drawn), the melting point stood at 190 °C.
The value for `CCCCCC(C)NC1=NS(=O)(=O)c2sc(Cl)cc2N1` (stereo not drawn) was 158 to 162 °C.
Next, `CC(=C1SC(=O)NC1=O)c1ccc(OCCOc2c(-c3ccc(F)cc3)n(C)c3ccccc3c2=O)cc1`: 228 to 230 °C; `CCCCc1nc(C)c(CCC(=S)N(C)C)c(=O)n1Cc1ccc(-c2ccccc2-c2nnn[nH]2)cc1`: 76.2 to 81.2 °C; `COc1cc(OCC(=O)N[C@@H]2CCN(Cc3ccccc3)C2)ccc1C=NNC(=O)c1ccc(O)c(N)c1`: 157 to 160 °C.
Next, `CS(=O)(=O)OCC1CN(c2ccc3ccccc3c2)C(=O)O1` (stereo not drawn): 169 to 172 °C; `CCC(C)C(C(=O)NS(C)(=O)=O)c1nc(OC)cc(OC)n1` (stereo not drawn): 97 to 101 °C; `O=C(c1cc(=O)c2cc(O)ccc2[nH]1)N1CCC(Cc2ccc(F)cc2)CC1`: 190 °C.
`O=C(NNc1nc(-c2ccccc2)c2cc(Cl)ccc2n1)C(F)(F)F` had a melting point of 207 to 208 °C.
`O=c1oc(-c2ccc(Sc3ccccc3)cc2)nc2sccc12` returned a melting point of 203 to 204 °C.
Regarding `N#CCCCCCNC(N)=S`, the melting point lay in the range of 69 to 71 °C.
`Cc1cc(C(N)=O)ccc1NC1CCN(Cc2ccccc2)CC1`: the melting point was 156 to 158 °C.
The value for `Clc1ccc(-c2cn([C@H]3CN4CCC3CC4)nn2)cc1Cl` was 108 °C; that for `Nc1ncc(-c2cccc(Nc3ccc(-c4ccoc4)cc3[N+](=O)[O-])c2)cn1` was 185 to 186 °C; that for `CC(C)C(=O)NC(C)(C)C` was 117 to 119 °C.
Next, `Oc1ccc(-c2nnc(CSCCOc3ccccc3)n2-c2ccccc2)cc1`: 214 to 216 °C; `COC(=O)C(C)Oc1ccc(Sc2cc(-n3nc(C)n(C(F)F)c3=O)c(Cl)cc2Cl)cc1` (stereo not drawn): 100 to 101 °C.
The value for `CN(C)CC1CC(c2ccc(Cl)cc2)c2ccccc2O1` (stereo not drawn) was 120 to 122 °C; that for `Cc1nc2n(c(=O)c1CCO)CCCN2Cc1ccccc1` was 150 °C; that for `CS(=O)(=O)c1ccc(-n2nc(C(F)(F)F)cc2-c2ccc(-c3ccco3)cc2)cc1C(F)(F)F` was 159 to 160 °C.
Turning to `O=C1CCC(c2ccccc2)(c2ccccc2)[C@@H]2CN(Cc3ccccc3)C[C@H]12` (racemic), the melting point came out at 132 °C.
The value for `COCCn1nc(CC(C)C)c2cn(Cc3cccc4ccccc34)cc2c1=O` was 96 to 98 °C.
Next, `CC(=O)OCCn1c(C(=O)Nc2ccc(OCC(C)(C)C)c(C#N)c2)cc2ccccc21`: 169 to 170 °C.
The value for `O=P(O)(O)C1(P(=O)(O)O)CCCCCN1` was 275 °C.
Regarding `N#CNC(=S)Nc1ccc(Cl)cc1`, the melting point was over 250 °C.
As for `COC12CC(CNC(=S)NC(C)=O)CN(C)C1Cc1cn(C)c3cccc2c13` (stereo not drawn), the melting point fell in the range of 170 to 172 °C.
The value for `NCCOc1cc(Cl)cc(Cl)c1` was 86 to 89 °C; that for `N=C(N)Nc1ccc(C(=O)Nc2ncc(Cl)[nH]2)cc1` was 263 to 265 °C.
Take `Nc1nc(-c2ccc(CCCCN3CCN(c4cccc(C(F)(F)F)c4)CC3)cc2)cs1`: the melting point is 174 to 179 °C.
Regarding `O=C(CNC(=O)c1ccc(/C=C/C(c2cc(Cl)c(Cl)c(Cl)c2)C(F)(F)F)cc1Cl)NCC(F)(F)F` (stereo not drawn), the melting point lay within 83 to 85 °C.
The value for `COc1cc(=O)[nH]c2cc(O)ccc2c1=O` was 273 to 275 °C; that for `O=C(CCCN1CCC(c2ccccc2)(c2ccccc2)CC1)c1ccc(F)cc1` was 107 to 108 °C; that for `Cc1nonc1-n1cc(C(=O)O)c(=O)c2cc(F)c(F)cc21` was 238 to 241 °C.
Next, `CCCCCc1cc(O)c2c(c1)OC(C)(C)C1=C2CC(C)(C)S1`: 109 to 110 °C; `Nc1ccc(S(=O)(=O)CCCO)cc1`: 99 to 102 °C.
`O=C1NCC(c2ccccc2)N1CCCS` (stereo not drawn): the melting point was in the range of 97 to 99 °C.
The molecule `O=C(CC1CCN(Cc2ccccc2)CC1)Nc1cncnc1NCc1ccc(F)cc1` displayed a melting point of 157 °C.
The value for `CCOC(=O)Cc1c[nH]c2nc(Nc3ccc(OC(C)C)cc3)nn2c1=O` was 235 to 240 °C.
The value for `COc1cc(-c2cn3ccccc3n2)c(F)cc1Cl` was 139 to 141 °C; that for `CCOC(=O)COc1ccc(N(C)Cc2ccc(-c3ccc(C(F)(F)F)cc3)nc2C)cc1CCCOC` was 72 to 73 °C.
`CC(C)c1ccc(-c2nn(C)c(=O)c3ccccc23)cc1` returned a melting point of 107 to 108 °C.
The molecule `CC(C)(C)c1ccc(S(=O)(=O)N2c3ccccc3C[C@H]2C(=O)NCc2ccc(Cl)cc2)cc1` yielded a melting point of 69 °C.
The molecule `C[C@@]1(c2ccccc2)OC(c2ccccc2)=NC[C@H]1O` (racemic) returned a melting point of 130 °C.
Next, `N#CC1=C(C2CCNCC2)Nc2n[nH]cc2C1c1cccc(C#N)c1Br` (stereo not drawn): over 270 °C; `CCN(CC)CCNC(=O)c1cnc2cc(I)ccc2n1`: 60 to 62 °C; `Cc1c(-c2ccccc2)c(N2CC[C@H](N(C)C)C2)c2oc(N3CCOCC3)nc2c1C#N`: 215 to 217 °C.
Next, `O=C1c2cc3c(cc2CCC1Br)OCC3` (stereo not drawn): 106 °C; `Fc1ccc(-c2nc3ccccn3c2-c2ccnc(-c3ccc(CN4CCCC4)cc3)c2)cc1F`: 155 °C; `CC(C)c1cccc(C(C)C)c1NC(=O)NCC1(c2ccc(Cl)cc2)CCCC1`: 189 to 192 °C.
Next, `O=C1N(c2cc(Cl)nc(Cl)c2)C(=O)[C@@]2(Cc3ccc(OC(F)(F)F)cc3)C[C@H](n3cccc3)CN12`: 130 °C; `CCC(=S)NC[C@H]1CN(c2ccc(N3CCN(C(=O)CCC(=O)c4ccc(CN(C)C)cc4)CC3)c(F)c2)C(=O)O1`: 169 °C.
As for `CCOC(=O)c1cnc2cc(OCc3ccccc3)c(OCc3ccccc3)cn2c1=O`, the melting point was 175 °C.
